Measurements reported in PMC9861623, “New Ferulic Acid and Amino Acid Derivatives with Increased Cosmeceutical and Pharmaceutical Potential” (Pharmaceutics, 2022).
Values joined by “and” are separate entries in the source; they are usually repeats but may differ in a detail not shown here. Equal entries are not always repeated.

Key:
[1] = parameters: method as in PMID 20692328; conditions: cited from earlier work
[2] = n-octanol/water partition coefficient by shake flask method; format: physicochemical; conditions: for log PO/W: n-octanol/water, shake flask, 25 °C
Protocol: The n-octanol/water partition coefficient (log PO/W) was determined for ferulic acid and its derivatives by shake flask method. n-Octanol saturated with water and water saturated with n-octanol were prepared at 25 °C, 24 h prior to their use in the experiments. Then, a sample of 10 mg of compound was weighed with the accuracy of 0.01 mg in a 16 cm^3 screwed vial and dissolved in 5 cm^3 of n-octanol. Next, 5 cm^3 of water was added to the vial. The resulting two-phase mixture was kept in water bath shaker at 25 °C for 2 h and was strongly shaken to reach the partition equilibrium of the compound between the phases. Then the mixture was left unshaken for 30 min and 1.0 cm^3 of water phase was carefully taken out to centrifuge tube. The sample was next centrifuged for 10 min at 7500 rpm at 25 °C to ensure the most precise phase separation. The concentration of compound in water phase was then determined using HPLC method. The partition coefficient, log PO/W was calculated according to the formula: logPO/W=logC0V0−CWVW/CWVW where: C0—initial concentration of the compound in n-octanol, calculated based on the weighed mass of compound, mg·cm^−^3; V0—volume of n-octanol, cm^3; CW—concentration of the compound in water after partition equilibrium, mg·cm^−^3; VW—volume of water, cm^3.

[3] = DPPH radical scavenging assay of the compounds
Protocol: (§1) To determine the antioxidant capacity of ferulic acid and its derivatives the DPPH method was used. The analyses were performed using the Hitachi UV-Vis Spectrophotometer U-5100 at the wavelength λ = 517 nm. Trolox (6-hydroxy-2,5,7,8-tetramethylchroman-2-carboxylic acid) was used as a reference substance. The antioxidant activity was expressed as %RSA and mmol Trolox dm^−3. […]. Blank samples without antioxidant were prepared in the same way. The tubes were wrapped in aluminum foil and were sealed with a stopper and then incubated for 10 min at room temperature. After this time, spectrophotometric measurements were carried out in triplicate. For determination of antioxidant activity of the acceptor fluid after 24 h of permeation and solutions obtained by extraction of the skin obtained after penetration study, 0.15 mL samples of each solutions were separately added to 2.85 mL of DPPH solution and spectrophotometric measurements were performed. The antioxidant activity was expressed as mmol Trolox·dm^−3.

[4] = Skin permeation in Franz diffusion cells; format: in vitro ADME, pig; conditions: 24 h, 10 mg as FA applied
Protocol: In the experiment, abdominal porcine skin coming from the local slaughterhouse was used. Pig skin was chosen because of its similar permeability to human skin [34, 35]. The fresh abdominal porcine skin was washed several times in PBS buffer pH 7.4. The skin of 0.5 mm in thickness was dermatomed and divided into 2 cm × 2 cm pieces. The skin samples were wrapped in aluminum foil and stored at −20 °C until use, not longer than 3 months. According to Badran et al., this storage time at this temperature is safe to keep skin barrier properties. Immediately before the experiment, the skin samples were slowly thawed at room temperature for 30 min and then were hydrated by PBS pH 7.4 [37, 38, 39, 40]. Such prepared skin was mounted on donor chamber. Only the undamaged skin pieces with an even thickness were chosen for experiments. The integrity of the skin was checked by impedance measurement using an LCRmeter4080 (Conrad Electronic, Hirschau, Germany), operated in parallel mode at an alternating frequency of 120 Hz (error at kΩ values < 0.5%). The tips of measuring probes were immersed in the donor and acceptor chamber containing PBS (pH 7.4), as described previously. Only skin samples of impedance > 3 kΩ were applied as such impedance is similar to the electrical resistance of human skin [42].
The concentration of FA and its derivatives in the acceptor fluid and in the fluid obtained by skin extraction after permeation experiment was assessed using liquid chromatography system (Knauer, Berlin, Germany) consisting of a model 2600 UV detector, Smartline model 1050 pump and Smartline model 3950 autosampler. HPLC was controlled by ClarityChrom 2009 software. The detector was operated at 280 nm. The separations were performed on 125 mm × 4 mm ID chromatographic column filled with Hyperisil ODS (C18), particle size 5 µm, in isocratic mode. The mobile phase consisted of acetonitrile, 1% acetic acid, and MeOH (47/47/6 v/v/v) and was pumped at flow rate of 1 mL min^−1. The column temperature was set at 25 °C, and the injection volume was 20 µL.
(§2) The permeation experiments were performed using Franz diffusion cells (Phoenix DB-6, ABL&E-JASCO, Wien, Austria). The diffusion was 1 cm^2. The volume of the acceptor chamber was 8 mL. This chamber was filled with PBS solution (pH 7.4). During experiment, a constant temperature of 37.0 ± 0.5 °C was maintained in each diffusion unit. The acceptor chamber content was stirred with a magnetic stirring bar at the same speed for all cells. The prepared pig skin was mounted on each donor chamber. As previously mentioned, only undamaged skin pieces with an even thickness were chosen for experiments. Thereafter, the hydrogel or emulsion vehicle/preparation in 1 g portion was put on the skin in donor cells. For comparison, 1 mL ethanolic solution containing either FA or its derivatives was applied to another donor chamber. The amount of the FA and its derivatives applied on the skin expressed as the mass of ferulic acid was 0.01 g and was the same for each carrier. The penetration experiments were carried out for 24 h. The samples were collected after 1 h, 2 h, 3 h, 4 h, 5 h, 6 h, 8 h, and 24 h. Aliquots of the acceptor fluid (0.5 mL) were withdrawn and to each acceptor chamber the same volume of fresh PBS solution was added. The FA and its derivatives’ concentrations in the acceptor fluid were measured by HPLC method (Section 2.6.2). The cumulative mass (µg·cm^−2) and penetration rate (µg·cm^−2·h^−1) were calculated. The acceptor fluid collected after 24 h of permeation was also measured for antioxidant activity and total polyphenol content (as described in Section 2.5.1 and Section 2.5.2).

[5] = DPPH antioxidant activity of acceptor fluid after 24 h permeation; parameters: species or system pig; conditions: after 24 h penetration
Protocol: as §1, §2

[6] = DPPH antioxidant activity of solution obtained after skin extraction; parameters: species or system pig; conditions: after 24 h penetration
Protocol: as §1
The accumulation of the FA and its derivatives in the skin after 24 h permeation process through the skin were determined using a modification of the methods described by Janus et al. and Taokaew et al.. After 24 h of permeation experiment, the skin samples were removed from the Franz diffusion cell, washed three times with 0.5% sodium lauryl sulfate solution and dried at room temperature. Next, after cutting out the diffusion area of each skin sample, the samples were immersed in 2 mL of absolute ethanol and continuously stirred at 300 rpm at room temperature for 24 h. The samples were then centrifuged, and clear solutions were collected and analyzed by HPLC method for the determination of FA and its derivatives. The accumulation of the active substance in the skin was calculated by dividing the amount of the drug remaining in the skin by a mass of skin sample and was expressed in mass active substance per mass of the skin (µg g^−1). For solution obtained after skin extraction, the antioxidant activity and total polyphenol content were also determined (as described in Section 2.5.1 and Section 2.5.2).

[7] = Thermogravimetric (TG) analysis, thermal stability; format: physicochemical; conditions: air atmosphere, 10 °C·min^−1; for Td onset, the onset of decomposition: TG; for Td max, temperature of the fastest mass loss of the sample: TG/DTG
Protocol: Samples of 2–5 mg, loaded in aluminium crucibles, were heated from 30 °C to 600 °C at the heating rate of 10 °C·min^−1, in the air atmosphere (25 mL·min^−1) with nitrogen flow (10 mL·min^−1) as the purge gas.

[8] = test system: UVB irradiated human melanocytes; parameters: method as in PMID 19274591; conditions: cited from earlier work
[9] = molar ratio antioxidant:DPPH 0.1, 10 min
[10] = molar ratio antioxidant:DPPH 1.0, 10 min
[11] = molar ratio antioxidant:DPPH 2.0, 10 min
[12] = from solution in 70% (v/v) ethanol

Structure (SMILES)	skin permeation compared with pure FA [1]	log PO/W [2]	Antioxidant activity %RSA [3, 9]	Antioxidant activity, Trolox equivalents [3, 9]	Antioxidant activity %RSA [3, 10]	Antioxidant activity, Trolox equivalents [3, 10]	Antioxidant activity %RSA [3, 11]	Antioxidant activity, Trolox equivalents [3, 11]	Cumulative Permeation Mass ([4]; from emulsion)	Cumulative Permeation Mass ([4]; from hydrogel)	Cumulative Permeation Mass [4, 12]	DPPH antioxidant activity of the acceptor fluid ([5]; emulsion)	DPPH antioxidant activity of the acceptor fluid ([5]; ethanol solution)	DPPH antioxidant activity of the acceptor fluid ([5]; hydrogel)	DPPH antioxidant activity of the solution obtained after skin extraction ([6]; emulsion)	DPPH antioxidant activity of the solution obtained after skin extraction ([6]; ethanol solution)	DPPH antioxidant activity of the solution obtained after skin extraction ([6]; hydrogel)	Td onset, the onset of decomposition [7]	Td max, temperature of the fastest mass loss of the sample [7]	other results
COc1cc(/C=C/C=O)ccc1O [CD, coniferyl aldehyde]	permeated the skin to a higher degree than pure FA	–	–	–	–	–	–	–	–	–	–	–	–	–	–	–	–	–	–	–
CCCOC(=O)CN.COc1cc(/C=C/C(=O)O)ccc1O [GPr[FA], glycine propyl ester ferulate]	–	0.582 ± 0.019	17.6 ± 0.001 %RSA and 17.6 ± 0.001 a %RSA	0.099 ± 0.001 mmol Trolox dm^−3 and 0.099 ± 0.001 a mmol Trolox dm^−3	78.0 ± 0.001 b %RSA	0.681 ± 0.001 b mmol Trolox dm^−3	86.6 ± 0.001 %RSA and 86.6 ± 0.001 b %RSA	0.764 ± 0.001 mmol Trolox dm^−3 and 0.764 ± 0.001 b mmol Trolox dm^−3	101.70 ± 26.47 a µg FA·cm^−2	268.16 ± 12.71 a µg FA·cm^−2	378.26 ± 2.29 a µg FA·cm^−2	0.059 ± 0.010 a mmol Trolox dm^−3	0.097 ± 0.021 b mmol Trolox dm^−3	0.069 ± 0.002 a mmol Trolox dm^−3	0.235 ± 0.037 a mmol Trolox dm^−3	0.257 ± 0.026 a mmol Trolox dm^−3	0.298 ± 0.009 a mmol Trolox dm^−3	129.6 °C	145.3 °C	Share of compound partitioned to n-octanol ([2]; from log PO/W): 79%
COc1cc(/C=C/CO)ccc1O [CA, coniferyl alcohol]	permeated the skin to a higher degree than pure FA	–	–	–	–	–	–	–	–	–	–	–	–	–	–	–	–	–	–	–
CCOC(=O)/C=C/c1ccc(O)c(OC)c1 [FAEE, ferulic acid ethyl ester]	permeated the skin to a higher degree than pure FA	–	–	–	–	–	–	–	–	–	–	–	–	–	–	–	–	–	–	production of ROS [8]: reduced the production of ROS
CCCOC(=O)[C@@H](N)CC(C)C.COc1cc(/C=C/C(=O)O)ccc1O [LPr[FA], L-leucine propyl ester ferulate]	–	0.454 ± 0.009	17.6 ± 0.001 %RSA and 17.6 ± 0.001 a %RSA	0.098 ± 0.001 mmol Trolox dm^−3 and 0.098 ± 0.001 a mmol Trolox dm^−3	79.5 ± 0.001 b %RSA	0.696 ± 0.001 b mmol Trolox dm^−3	87.8 ± 0.001 %RSA and 87.8 ± 0.001 b %RSA	0.776 ± 0.001 mmol Trolox dm^−3 and 0.776 ± 0.001 b mmol Trolox dm^−3	119.29 ± 19.72 a µg FA·cm^−2	267.48 ± 24.57 a µg FA·cm^−2	415.12 ± 8.71 µg FA·cm^−2 and 415.12 ± 8.71 b µg FA·cm^−2	0.053 ± 0.005 mmol Trolox dm^−3 and 0.053 ± 0.005 a mmol Trolox dm^−3	0.098 ± 0.011 mmol Trolox dm^−3 and 0.098 ± 0.011 a mmol Trolox dm^−3	0.063 ± 0.009 mmol Trolox dm^−3 and 0.063 ± 0.009 a mmol Trolox dm^−3	0.257 ± 0.014 ab mmol Trolox dm^−3	0.255 ± 0.038 a mmol Trolox dm^−3	0.298 ± 0.009 mmol Trolox dm^−3 and 0.320 ± 0.030 ab mmol Trolox dm^−3	126.0 °C	156.0 °C	DPPH antioxidant activity of the solution obtained after skin extraction ([6]; ethanol solution, listed as Leu[FA]): 0.255 ± 0.038 mmol Trolox dm^−3
